Measured values taken from patent US20230338609A1, “MEDICAL DEVICES AND MATERIALS COMPRISING BIODEGRADABLE POLYESTERS” (AMICOAT AS, priority 2020, published 2023).
In brackets after ≈: the same amount, converted by molar mass.

Legend:
[1] = tested on: Haemophilus influenzae - β -lactamase positive clinical isolate
[2] = tested on: Propionibacterium acnes- antibiotic-susceptible clinical isolate; experiment: MIC microbroth dilution (CLSI); assay type: cell-based; details: P. acnes antibiotic-susceptible
Procedure: Supplemented Brucella broth (SBB) was used for the anaerobic strains with an inoculum of approximately 10^6 CFU/mL. SBB is a broth consisting of 1% peptone, 0.5% ‘Lab-lemco’, 1% glucose and 0.5% sodium chloride supplemented with 5 […] vitamin K (both obtained from Sigma Aldrich Ltd.)

[3] = tested on: Methicillin resistant Staphylococcus aureus (MRSA) strain ATCC 33591; details: ATCC 33591
[4] = tested on: Streptococcus bovis - macrolide-resistant clinical isolate; assay type: cell-based
Description: (§1) Cation-adjusted Mueller-Hinton broth (Oxoid Ltd., Basingstoke, UK and Trek Diagnostic Systems Ltd., East Grinstead, UK) (supplemented with 5% laked horse blood for Streptococcus spp., Corynebacterium jeikeium and Listeria monocytogenes) was used for aerobic bacteria, with an initial inoculum of approximately 10^5 colony-forming units (CFU)/mL.

[5] = tested on: Staphylococcus haemolyticus - antibiotic susceptible clinical isolate; assay type: cell-based
Description: as §1

[6] = tested on: Group G Streptococcus - antibiotic-susceptible clinical isolate; assay type: cell-based
Description: as §1

[7] = tested on: Enterobacter sp - multi-drug resistant clinical isolate; assay type: cell-based
Description: as §1

[8] = tested on: EMRSA3 Staphylococcus aureus (MRSA) - SSCmec type 1; assay type: cell-based; details: EMRSA3 - SSCmec type 1
Description: as §1

[9] = tested on: Klebsiella aerogenes NCTC11228 - antibiotic-susceptible type strain; assay type: cell-based
Description: as §1

[10] = tested on: Pseudomonas aeruginosa - multi-drug resistant clinical isolate; assay type: cell-based
Description: as §1

[11] = tested on: Enterococcus faecalis vancomycin-resistant (VanB) clinical isolate; assay type: cell-based
Description: as §1

[12] = tested on: Escherichia coli ATCC25922 - antibiotic-susceptible type strain; assay type: cell-based
Description: as §1

[13] = tested on: Streptococcus bovis - antibiotic-susceptible clinical isolate; assay type: cell-based
Description: as §1

[14] = tested on: EMRSA15 Staphylococcus aureus (MRSA) - SSCmec type 4; assay type: cell-based; details: EMRSA15 - SSCmec type 4
Description: as §1

[15] = tested on: EMRSA16 Staphylococcus aureus (MRSA) - SSCmec type 2; assay type: cell-based; details: EMRSA16 - SSCmec type 2
Description: as §1

[16] = tested on: Staphylococcus aureus - multi-drug-resistant clinical isolate; assay type: cell-based
Description: as §1

[17] = tested on: Enterococcus gallinarum vancomycin-resistant (VanC) clinical isolate; assay type: cell-based
Description: as §1

[18] = tested on: Escherichia coli - multi-drug resistant clinical isolate; assay type: cell-based
Description: as §1

[19] = tested on: Klebsiella aerogenes - multi-drug resistant clinical isolate; assay type: cell-based
Description: as §1

[20] = tested on: Stenotrophomonas maltophilia - antibiotic-susceptible clinical isolate; assay type: cell-based
Description: as §1

[21] = tested on: Group C Streptococcus - antibiotic-susceptible clinical isolate; assay type: cell-based
Description: as §1

[22] = tested on: Streptococcus pyogenes - Macrolide (M-type) resistance clinical isolate; assay type: cell-based; details: - Macrolide (M-type) resistance clinical isolate
Description: as §1

[23] = tested on: Enterococcus faecium vancomycin-susceptible clinical isolate; assay type: cell-based
Description: as §1

[24] = tested on: Enterobacter sp - antibiotic-susceptible clinical isolate; assay type: cell-based
Description: as §1

[25] = tested on: Staphylococcus aureus - teicoplanin-intermediate clinical isolate; assay type: cell-based
Description: as §1

[26] = tested on: Morganella morganii - multi-drug resistant clinical isolate; assay type: cell-based
Description: as §1

[27] = tested on: Streptococcus pneumoniae - penicillin-susceptible clinical isolate; assay type: cell-based
Description: as §1

[28] = tested on: Staphylococcus aureus - methicillin-resistant clinical isolate; assay type: cell-based
Description: as §1

[29] = tested on: Staphylococcus saprophyticus - antibiotic susceptible clinical isolate; assay type: cell-based
Description: as §1

[30] = tested on: Staphylococcus epidermidis antibiotic susceptible clinical isolate; assay type: cell-based
Description: as §1

[31] = tested on: Corynebacterium jeikeium - antibiotic-susceptible clinical isolate; assay type: cell-based
Description: as §1

[32] = tested on: Streptococcus agalactiae - macrolide-resistant clinical isolate; assay type: cell-based
Description: as §1

[33] = tested on: Staphylococcus aureus ATCC 43300 - methicillin-resistant control strain; assay type: cell-based
Description: as §1

[34] = tested on: Enterococcus faecium vancomycin-resistant (VanB) clinical isolate; assay type: cell-based
Description: as §1

[35] = tested on: Streptococcus agalactiae - antibiotic-susceptible clinical isolate; assay type: cell-based
Description: as §1

[36] = tested on: HT2001254 Staphylococcus aureus (MRSA) - PVL positive; assay type: cell-based
Description: as §1

S. pyogenes = details: Table 5

CCCCCCNC(=O)[C@H](CCCNC(=N)N)NC(=O)[C@H](Cc1c(C(C)(C)C)[nH]c2c(C(C)(C)C)cc(C(C)(C)C)cc12)NC(=O)[C@@H](N)CCCNC(=N)N [Compound 8]
MIC [1]: 4 mg/L (≈ 5.21 µM) | MIC [2]: 4 mg/L (≈ 5.21 µM) | MRSA (MIC) [3]: 2 mg/L | MIC [4]: 2 mg/L (≈ 2.6 µM) | MIC [5]: 4 mg/L (≈ 5.21 µM) | MIC [6]: 8 mg/L (≈ 10.4 µM) | MIC [7]: 8 mg/L (≈ 10.4 µM) | MIC [8]: 4 mg/L (≈ 5.21 µM) | MIC [9]: 8 mg/L (≈ 10.4 µM) | MIC [10]: 4 mg/L (≈ 5.21 µM) | MIC [11]: 8 mg/L (≈ 10.4 µM) | MIC [12]: 4 mg/L (≈ 5.21 µM) | MIC [13]: 8 mg/L (≈ 10.4 µM) | MIC [14]: 4 mg/L (≈ 5.21 µM) | MIC [15]: 4 mg/L (≈ 5.21 µM) | MIC [16]: 4 mg/L (≈ 5.21 µM) | MIC [17]: 4 mg/L (≈ 5.21 µM) | MIC [18]: 8 mg/L (≈ 10.4 µM) | MIC [19]: 8 mg/L (≈ 10.4 µM) | MIC [20]: 4 mg/L (≈ 5.21 µM) | MIC [21]: 8 mg/L (≈ 10.4 µM) | MIC [22]: 8 mg/L (≈ 10.4 µM) | MIC [23]: 4 mg/L (≈ 5.21 µM) | MIC [24]: 8 mg/L (≈ 10.4 µM) | MIC [25]: 4 mg/L (≈ 5.21 µM) | MIC [26]: 8 mg/L (≈ 10.4 µM) | MIC [27]: 8 mg/L (≈ 10.4 µM) | MIC [28]: 4 mg/L (≈ 5.21 µM) | MIC [29]: 0.5 mg/L (≈ 0.651 µM) | MIC [30]: 8 mg/L (≈ 10.4 µM) | MIC [31]: 4 mg/L (≈ 5.21 µM) | MIC [32]: 8 mg/L (≈ 10.4 µM) | MIC [33]: 4 mg/L (≈ 5.21 µM) | MIC [34]: 4 mg/L (≈ 5.21 µM) | MIC [35]: 8 mg/L (≈ 10.4 µM) | MIC [36]: 4 mg/L (≈ 5.21 µM) | S. pyogenes (MIC) (S. pyogenes): 2 mg/L
